# According to patent US9856480B2, “Dnazyme for silencing the expression of EGFR” (DCB-USA LLC, priority 2013, dated 2018):
# Strand notation (5' to 3'): a small letter for the sugar, then the base; units joined by * are phosphorothioate-linked, units joined directly phosphodiester-linked; [ ] holds rarer units or linkages, { } end groups; capitals alone tell only the bases. d = 2'-deoxy (DNA)
# What was measured:
# EGFR T790M [1] = biological target: EGFR T790M (Homo sapiens, UniProt P00533, L858R/T790M); experiment: Western immunoblotting of EGFR expression and downstream signaling in EGFR T790M mutant cell lines; settings: H1975^TM/LR; 100 nM; 72 h; 100 ng/ml EGF 15 min
# Method: (§4) Cells were harvested 72 h after transfecting with 100 nM DzC or DzT. 100 ng/ml EGF were added into culture medium 15 min before cell lysates were harvested. Cell lysates were analyzed by immunoblotting with indicated primary antibodies.
# (§5) Cells were harvested 72 h after transfecting with 100 nM cDzC or cDzT. 100 ng/ml EGF were added into culture medium 15 min before cell lysates were harvested. Cell lysates were analyzed by immunoblotting with indicated primary antibodies.
# (§6) A549, CL1-5, H1975, or CL97 was seeded onto 6-well at 3×10^5 cells/well and cultured overnight. […] The transfected A549 and CL1-5 cells were serum-starved for 24 h and treated with 100 ng/ml of EGF at 37° C. for 15 min. 72 h after transfection, cell were collected for analysis. Cells were washed twice by ice-cold PBS and then total protein was extracted by RIPA buffer with protease inhibitor (Roche). 50 μg of total protein from the supernatants were boiled for 5 min at 95° C. The samples were resolved on 10% SDS-PAGE gel and transferred onto nitrocellulose membranes. […] Secondary antibodies against rabbit IgG or mouse IgG was used at 1:5000 dilution. Protein bands on membrane were visualized by exposure to the chemiluminescence substrate.
# (§7) To examine the effects of DzT790M on protein expression level of EGFR and its downstream signaling, western immunoblotting was performed on DzT790M transfected cells. A549, CL1-5, H1975, or CL97 was seeded onto 6-well at 3×10^5 cells/well and cultured overnight. […] The transfected A549 and CL1-5 cells were serum-starved for 24 h and treated with 100 ng/ml of EGF at 37° C. for 15 min. 72 h after transfection, cell were collected for analysis. Cells were washed twice by ice-cold PBS and then total protein was extracted by RIPA buffer with protease inhibitor (Roche).
# (§8) The transfected CL1-5 cells were serum-starved for 24 h and treated with 100 ng/ml of EGF at 37° C. for 15 min. 72 h after transfection, cells were collected for western blotting analysis following the above mentioned procedure. Expression of EGFR and downstream signaling were examined by primary antibodies against human pEGFR (Y1068), tEGFR, pSTAT3 (Y705), tSTAT3, pAKT (S473), tAKT, pERK (T202/Y204), and tERK at 1:1000 dilution and β-actin at 1:10000 dilution, respectively.
# (§9) H1975 was seeded onto 6-well at 3×10^5 cells/well and cultured overnight. […] 72 h after transfection, cells were collected for western blotting analysis following the above mentioned procedure. Expression of EGFR and downstream signaling were examined by primary antibodies against human pEGFR(Y1068), tEGFR, pSTAT3 (Y705), tSTAT3, pAKT (S473), tAKT, pERK (T202/Y204), and tERK at 1:1000 dilution and β-actin at 1:10000 dilution, respectively.
# (§10) H1975^TM/LR and CL97^TM/GA cells were harvested 72 h after transfecting with DzC or DzT. […]
# EGFR T790M [2] = experiment: as above; settings: 100 nM
# Method: as §4, §5, §6, §7, §8, §9, §10
# cleaved PARP = experiment: Immunoblotting against cleaved form of PARP; format: cell-based, human; settings: H1975 and CL97 cells; 100 nM
# Method: A549, CL1-5, H1975, or CL97 was seeded onto 6-well at 3×10^5 cells/well and cultured overnight. Then, cells were separately treated with 100 nM DzControl or DzT790M-1 with lipofectamine 2000 (Invitrogen). The transfected A549 and CL1-5 cells were serum-starved for 24 h and treated with 100 ng/ml of EGF at 37° C. for 15 min. 72 h after transfection, cell were collected for analysis. Cells were washed twice by ice-cold PBS and then total protein was extracted by RIPA buffer with protease inhibitor (Roche). 50 μg of total protein from the supernatants were boiled for 5 min at 95° C. The samples were resolved on 10% SDS-PAGE gel and transferred onto nitrocellulose membranes. EGFR expression and downstream signaling were detected by using primary antibodies specific to human pEGFR(Y1068) (Cell signaling), tEGFR (Santa Cruz), pSTAT3 (Y705) (Cell signaling), tSTAT3 (Cell signaling), pAKT (5473)(Cell signaling), tAKT (Santa Cruz), pERK (T202/Y204) (Cell signaling), tERK (Santa Cruz), and cleaved PARP (Cell signaling) at 1:1000 dilution and β-actin (Santa Cruz) at 1:10000 dilution, respectively. […]
# EGFR and downstream signaling pathway regulates important cell functions including cell proliferation and survival. In order to examine functional effects of DzT790M-1 on cell survival, the number of cells was counted after DzControl or DzT790M-1 transfection respectively. […]
# T790M EGFR mRNA [3] = experiment: Real-time PCR of EGFR mRNA knockdown; format: cell-based, human; settings: 100 nM with lipofectamine 2000, 48 h
# Method: (§1) A549, CL1-5, H1975, or CL97 was seeded onto 6-well at 3×10^5 cells/well and cultured overnight. Then, cells were separately treated with 100 nM DzControl or DzT790M-1 with lipofectamine 2000 (Invitrogen). After 48 h, total mRNA were extracted from DNAzyme-treated cells by Mestrisol following manufacturer's protocol. cDNA were synthesized by using RT III kit with random hexamers as primers (Invitrogen). The PCR primers were synthesized by Genomics BioSci & Tech (Taipei, Taiwan). The sequences of PCR primers are listed as follows: […]
# (§2) The parameters for PCR were: 95° C. for 10 min, then 25 cycles of PCR at 95° C. for 30 s, 60° C. for 30 s, and 72° C. for 60 s. 3% agarose gels were used for electrophoresis of PCR products. The intensity of bands were quantified by Image J. Quantitative RT-PCR was performed on 40 ng total mRNA with the LightCycler 480 system (Roche). The PCR mix contained 5 μl of 2× Probe Master mix, 100 nM of UPL probe (Roche Diagnostics, Penzberg, Germany), 200 nM of forward primer and reverse primer, 0.1 ul RNAseout (Invitrogen), and 0.025 ul RTIII enzyme (Invitrogen) in a total volume of 10 μl. PCR parameters were as follows: 50° C. for 40 min, then 45 cycles of PCR at 95° C. for 10 s, 60° C. for 10 s, and 72° C. for 2 s. Data were analyzed by LC480 software (Roche Diagnostics, Penzberg, Germany). The relative amount of EGFR mRNA was normalized to ACTB mRNA. The sequences of PCR primers are as follows: […]
# (§3) To examine the allele selectivity of DzT790M-1, EGFR mRNA knockdown efficiency was detected in two cell lines harboring wild-type EGFR (A549, CL1-5) and two cell lines containing EGFR T790M mutation (H1975, CL97). A549, CL1-5, H1975, or CL97 was seeded onto 6-well at 3×10^5 cells/well and cultured overnight. Then, cells were separately treated with 100 nM DzControl or DzT790M-1 with lipofectamine 2000 (Invitrogen). After 48 h, total mRNA was extracted. […] DzT790M-1 knocked down 68.2% and 77.4% T790M EGFR mRNA expression in H1975 and CL97 cells respectively. In contrast, in A549 and CL1-5 cells, only 1.1% and 19.2% wild-type EGFR mRNA expression was affected.
# wild-type EGFR mRNA = experiment: Real-time PCR of EGFR mRNA knockdown; format: cell-based, human; settings: 100 nM with lipofectamine 2000, 48 h
# Method: as §1, §2, §3
# T790M EGFR mRNA [4] = experiment: Quantitative real-time PCR of EGFR mRNA knockdown; format: cell-based, human; settings: for T790M EGFR mRNA expression knocked down (quantitative real-time PCR): 100 nM, 48 h
# Method: as §1, §2, §3
# H1975 cells = experiment: Apoptosis assay (annexin V and PI, flow cytometry); format: cell-based, human; settings: 100 nM, 48 h
# Method: H1975 or CL97 was seeded onto 10-cm dish and cultured overnight. Then, cells were separately treated with 100 nM DzControl or DzT790M-1 with lipofectamine 2000 (Invitrogen). After 48 h, cells were collected, double stained by annexin V and PI, and analyzed by flow cytometry following the protocol of Dead cell apoptosis kit from manufacturer (Invitrogen).
substance,measurement,setting,value
"DzT790M-1: 10-23 DNAzyme against EGFR T790M mRNA, arms 10/4, phosphorothioate ends: AGCTGCATGAGGCTAGCTACAACGAGAGC (DNA dA*dGdCdTdGdCdAdTdGdAdGdGdCdTdAdGdCdTdAdCdAdAdCdGdAdGdAdG*dC; further chemistry not fully specified)","EGFR protein expression and downstream signaling including EGFR, STAT3, and ERK after EGF treatment",EGFR T790M [1],remained its suppression effect
same,"phosphorylation of EGFR Y1068, STAT3 Y705, AKT S473 and ERK T202/Y204","EGFR T790M [2]; H1975 and CL97 cells, 72 h, ERK not in H1975 cells",decreased phosphorylation
same,EGFR protein expression,"EGFR T790M [2]; H1975 and CL97 cells, 72 h after transfection",significantly silenced
same,EGFR T790M expression and downstream signaling after EGF treatment,"EGFR T790M [2]; T790M mutant cells, 72 h, 100 ng/ml EGF 15 min",remains its suppression effect
same,level of cleaved PARP compared to DzControl treated group,cleaved PARP,increased level
same,remained EGFR mRNA expression (real-time PCR),T790M EGFR mRNA [3]; CL97 cells,54%
same,remained EGFR mRNA expression (real-time PCR),T790M EGFR mRNA [3]; H1975 cells,32%
same,remained EGFR mRNA expression (real-time PCR),wild-type EGFR mRNA; A549 cells,121%
same,remained EGFR mRNA expression (real-time PCR),wild-type EGFR mRNA; CL1-5 cells,95%
same,T790M EGFR mRNA expression knocked down (quantitative real-time PCR),T790M EGFR mRNA [4]; CL97 cells,77.4%
same,T790M EGFR mRNA expression knocked down (quantitative real-time PCR),T790M EGFR mRNA [4]; H1975 cells,68.2%
same,increased knockdown efficiency toward T790M EGFR mRNA over wild-type counterpart,"T790M EGFR mRNA [4]; quantitative real-time PCR, H1975, CL97 vs A549, CL1-5",at least 3.5 fold
same,apoptotic cells,H1975 cells,18.6%
same,dead cells (annexin V and PI double positive),H1975 cells,32.6%
